According to patent publication US9833497B2, “Human originated EGF domain proteins and use of the same” (CHENGDU SOURCEBIO LIMITED-LIABILITY COMPANY, priority 2013, dated 2017):

Experiments:
Assay type in all cases: cell-based
Moraxella catarrhalis = experiment: MIC against Gram-negative bacteria: Moraxella catarrhalis
In short: (§1)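 MIC, the lowest recombinant protein concentration giving no bacterial growth, found by two-fold serial dilution of human EGF-domain proteins in triplicate. Inoculum 5×10^5 CFU/mL in LB from cultures at McFarland 0.5; plates incubated at 37° C, 175 rpm shaking.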

Klebsiella pneumonia = experiment: MIC against Gram-negative bacteria: Klebsiella pneumonia
In short: as §1

Citrobacter diversus = experiment: MIC against Gram-negative bacteria: Citrobacter diversus
In short: as §1

Aeromonas hydrophila = experiment: MIC against Gram-negative bacteria: Aeromonas hydrophila
In short: as §1

Serratia marcescens = experiment: MIC against Gram-negative bacteria: Serratia marcescens
In short: as §1

Enterobacter cloacae = experiment: MIC against Gram-negative bacteria: Enterobacter cloacae
In short: as §1

Proteus mirabilis = experiment: MIC against Gram-negative bacteria: Proteus mirabilis
In short: as §1

E. coli BL21 = experiment: MIC against Gram-negative bacteria: E. coli BL21
In short: as §1

Pseudomonas aeruginosa = experiment: MIC against Gram-negative bacteria: Pseudomonas aeruginosa
In short: as §1

Proteus vulgaris = experiment: MIC against Gram-negative bacteria: Proteus vulgaris
In short: as §1

E. coli DH5α = experiment: Antibacterial activity: MIC and growth curve against E. coli DH5α in 96-well plate; details: minimal inhibitory concentration against E. coli DH5α; 96-well plate, 5×10^5 CFU/mL, 37° C., judged after 8 h
In short: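 MIC taken as lowest protein level with no bacterial growth, tracked by A600 every 30 min during 37 °C, 175 rpm culture. Two-fold protein series 50-12.5 μg/mL final, triplicate wells, against 5×10^5 CFU/mL of LB-washed mid-log cells.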

[1] = Moraxella catarrhalis, 96-well plate, 5×10^5 CFU/mL, 37° C., 10 h
[2] = Klebsiella pneumonia, 96-well plate, 5×10^5 CFU/mL, 37° C., 10 h
[3] = Citrobacter diversus, 96-well plate, 5×10^5 CFU/mL, 37° C., 10 h
[4] = Aeromonas hydrophila, 96-well plate, 5×10^5 CFU/mL, 37° C., 10 h
[5] = Serratia marcescens, 96-well plate, 5×10^5 CFU/mL, 37° C., 10 h
[6] = Enterobacter cloacae, 96-well plate, 5×10^5 CFU/mL, 37° C., 10 h
[7] = Proteus mirabilis, 96-well plate, 5×10^5 CFU/mL, 37° C., 10 h
[8] = E. coli BL21, 96-well plate, 5×10^5 CFU/mL, 37° C., 10 h
[9] = Pseudomonas aeruginosa, 96-well plate, 5×10^5 CFU/mL, 37° C., 10 h
[10] = Proteus vulgaris, 96-well plate, 5×10^5 CFU/mL, 37° C., 10 h
[11] = 96-well plate, 5×10^5 CFU/mL, 37° C., 10 h

PRT943 (PNVSCDIAASRRGVLVEHLCQHSGVCINAGNTHYCQCPLGYTGSYCE; listed as Homo sapiens)
50 µg/mL: MIC (Serratia marcescens; S. marcescens, 10 h cultivation at 37° C.)
25 µg/mL: MIC (Enterobacter cloacae; E. cloacae, 10 h cultivation at 37° C.)
12.5 µg/mL: MIC (Moraxella catarrhalis; M. catarrhalis, 10 h cultivation at 37° C.) | MIC (Klebsiella pneumonia; K. pneumonia, 10 h cultivation at 37° C.) | MIC (Citrobacter diversus; C. diversus, 10 h cultivation at 37° C.) | MIC (Aeromonas hydrophila; A. hydrophila, 10 h cultivation at 37° C.) | MIC (Proteus mirabilis; P. mirabilis, 10 h cultivation at 37° C.) | MIC (E. coli BL21; E. coli BL21, 10 h cultivation at 37° C.) | MIC (Pseudomonas aeruginosa; P. aeruginosa, 10 h cultivation at 37° C.) | MIC (Proteus vulgaris; P. vulgaris, 10 h cultivation at 37° C.) | MIC (E. coli DH5α)

PRT76 (EVDLCYSRPCGPHGRCRSREGGYTCLCRDGYTGEHCE; listed as Homo sapiens)
50 µg/mL: MIC (μg/mL) S. marcescens (Serratia marcescens; [5])
100 µg/mL: MIC (μg/mL) M. catarrhalis (Moraxella catarrhalis; [1])
12.5 µg/mL: MIC (μg/mL) K. pneumonia (Klebsiella pneumonia; [2]) | MIC (μg/mL) A. hydrophila (Aeromonas hydrophila; [4]) | MIC (μg/mL) P. mirabilis (Proteus mirabilis; [7]) | MIC (μg/mL) E. coli BL21 (E. coli BL21; [8]) | MIC (μg/mL) P. vulgaris (Proteus vulgaris; [10])
25 µg/mL: MIC (μg/mL) C. diversus (Citrobacter diversus; [3]) | MIC (μg/mL) E. cloacae (Enterobacter cloacae; [6]) | MIC (μg/mL) P. aeruginosa (Pseudomonas aeruginosa; [9]) | MIC (E. coli DH5α)

PRT1476 (DVDECSLKPSICGTAVCKNIPGDFECECPEGYRYNLKSKSCE; listed as Homo sapiens)
25 µg/mL: MIC against M. catarrhalis (Moraxella catarrhalis; Moraxella catarrhalis, 5×10^5 CFU/mL, 10 h cultivation at 37° C.) | MIC against S. marcescens (Serratia marcescens; Serratia marcescens, 5×10^5 CFU/mL, 10 h cultivation at 37° C.) | MIC against E. coli BL21 (E. coli BL21; E. coli BL21, 5×10^5 CFU/mL, 10 h cultivation at 37° C.)
50 µg/mL: MIC against K. pneumonia (Klebsiella pneumonia; Klebsiella pneumonia, 5×10^5 CFU/mL, 10 h cultivation at 37° C.) | MIC against A. hydrophila (Aeromonas hydrophila; Aeromonas hydrophila, 5×10^5 CFU/mL, 10 h cultivation at 37° C.) | MIC against P. mirabilis (Proteus mirabilis; Proteus mirabilis, 5×10^5 CFU/mL, 10 h cultivation at 37° C.)
12.5 µg/mL: MIC against C. diversus (Citrobacter diversus; Citrobacter diversus, 5×10^5 CFU/mL, 10 h cultivation at 37° C.) | MIC against E. cloacae (Enterobacter cloacae; Enterobacter cloacae, 5×10^5 CFU/mL, 10 h cultivation at 37° C.) | MIC against P. aeruginosa (Pseudomonas aeruginosa; Pseudomonas aeruginosa, 5×10^5 CFU/mL, 10 h cultivation at 37° C.) | MIC against P. vulgaris (Proteus vulgaris; Proteus vulgaris, 5×10^5 CFU/mL, 10 h cultivation at 37° C.) | MIC (E. coli DH5α)

PRT13 (PARSCAEEPCGAGTCKETEGHVICLCPPGYTGEHCN; listed as Homo sapiens)
25 µg/mL: MIC (μg/mL) K. pneumonia (Klebsiella pneumonia; [2]) | MIC (μg/mL) C. diversus (Citrobacter diversus; [3]) | MIC (μg/mL) P. vulgaris (Proteus vulgaris; [10]) | MIC (E. coli DH5α)
50 µg/mL: MIC (μg/mL) P. mirabilis (Proteus mirabilis; [7])
12.5 µg/mL: MIC (μg/mL) M. catarrhalis (Moraxella catarrhalis; [1]) | MIC (μg/mL) A. hydrophila (Aeromonas hydrophila; [4]) | MIC (μg/mL) S. marcescens (Serratia marcescens; [5]) | MIC (μg/mL) E. cloacae (Enterobacter cloacae; [6]) | MIC (μg/mL) E. coli BL21 (E. coli BL21; [8]) | MIC (μg/mL) P. aeruginosa (Pseudomonas aeruginosa; [9])

PRT740 (GLNDCMHNNGQCGQLCLAIPGGHRCGCASHYTLDPSSRNCS; listed as Homo sapiens)
25 µg/mL: MIC S. marcescens (Serratia marcescens; [11]) | MIC P. mirabilis (Proteus mirabilis; [11])
12.5 µg/mL: MIC K. pneumonia (Klebsiella pneumonia; [11]) | MIC C. diversus (Citrobacter diversus; [11]) | MIC A. hydrophila (Aeromonas hydrophila; [11]) | MIC E. coli BL21 (E. coli BL21; [11]) | MIC P. vulgaris (Proteus vulgaris; [11]) | MIC (E. coli DH5α)
50 µg/mL: MIC M. catarrhalis (Moraxella catarrhalis; [11]) | MIC E. cloacae (Enterobacter cloacae; [11]) | MIC P. aeruginosa (Pseudomonas aeruginosa; [11])

PRT172 (CADGPCFNGGRCSDSPDGGYSCRCPVGYSGFNC; listed as Homo sapiens)
25 µg/mL: MIC (μg/mL) K. pneumonia (Klebsiella pneumonia; K. pneumonia, 10 h cultivation at 37° C., 5×10^5 CFU/mL) | MIC (μg/mL) E. coli BL21 (E. coli BL21; E. coli BL21, 10 h cultivation at 37° C., 5×10^5 CFU/mL)
12.5 µg/mL: MIC (μg/mL) M. catarrhalis (Moraxella catarrhalis; M. catarrhalis, 10 h cultivation at 37° C., 5×10^5 CFU/mL) | MIC (μg/mL) C. diversus (Citrobacter diversus; C. diversus, 10 h cultivation at 37° C., 5×10^5 CFU/mL) | MIC (μg/mL) A. hydrophila (Aeromonas hydrophila; A. hydrophila, 10 h cultivation at 37° C., 5×10^5 CFU/mL) | MIC (μg/mL) S. marcescens (Serratia marcescens; S. marcescens, 10 h cultivation at 37° C., 5×10^5 CFU/mL) | MIC (μg/mL) E. cloacae (Enterobacter cloacae; E. cloacae, 10 h cultivation at 37° C., 5×10^5 CFU/mL) | MIC (μg/mL) P. mirabilis (Proteus mirabilis; P. mirabilis, 10 h cultivation at 37° C., 5×10^5 CFU/mL) | MIC (μg/mL) P. vulgaris (Proteus vulgaris; P. vulgaris, 10 h cultivation at 37° C., 5×10^5 CFU/mL) | MIC (E. coli DH5α)
50 µg/mL: MIC (μg/mL) P. aeruginosa (Pseudomonas aeruginosa; P. aeruginosa, 10 h cultivation at 37° C., 5×10^5 CFU/mL)

PRT1305 (SANACSAFKCHHGQCHISDQGEPYCLCQPGFSGEHCQ; listed as Homo sapiens)
12.5 µg/mL: MIC against C. diversus (Citrobacter diversus; [3]) | MIC against S. marcescens (Serratia marcescens; [5]) | MIC against E. cloacae (Enterobacter cloacae; [6]) | MIC against P. aeruginosa (Pseudomonas aeruginosa; [9]) | MIC (E. coli DH5α)
50 µg/mL: MIC against M. catarrhalis (Moraxella catarrhalis; [1]) | MIC against K. pneumonia (Klebsiella pneumonia; [2]) | MIC against A. hydrophila (Aeromonas hydrophila; [4]) | MIC against E. coli BL21 (E. coli BL21; [8])
25 µg/mL: MIC against P. mirabilis (Proteus mirabilis; [7]) | MIC against P. vulgaris (Proteus vulgaris; [10])
